According to US5922775A, “Method of treating malignant tumors with ketone thyroxine analogues having no significant hormonal activity” (priority 1997, dated 1999):

Tests used:
[1] = tested on: human cancer cells; details: cited from earlier work; for cytostatic / cytocidal activity: cellular assays and in vivo
[2] = tested on: microtubule protein (MTP); assay: Microtubule assembly (MTP polymerization) in vitro, optical test at 350 nm; type: biochemical, bovine or rabbit (brain); details: for Percent inhibition of intitial velocity (microtubule assembly in vitro): 10 μM drug, GTP 1 mM, 37° C., averages of duplicate assay; for effect of substitution on inhibition of MTP polymerization: compared with DIME; for inhibitory action on MTP assembly (comparison, FIG. 2): drug concentrations up to 20 μM; for order of potency on MTP assembly (FIG. 3): zero to 10 μM drug, lowered GTP concentration (10 μM)
From the text: This inhibition is critically dependent on the concentration of GTP. The quantitative correlation between the concentrations of DIME and GTP, under conditions of a linear rate of MTP polymerization, follows Michaelis-Menten kinetics and the inhibition portrays a "mixed" type, where km for GTP and Vmax are altered simultaneously. Chemical analogues of DIME inhibit MTP polymerization parallel to their antitumorigenic action in vivo. The MTP site is one of the early cellular response sites of DIME.
J. Oncol. Abnormal spindle structures could be the result of DIME-MTP interaction or reactions of DIME with components of the microtubule organizing center or with as yet undefined systems sequentially or in concert. Since time-dependent quantitative analysis of the MTP system in situ is unsuitable for initial velocity measurement we adapted the in vitro assembly system of neurotubules as a model for a quantitative analysis of the interaction of DIME with MTP. […] The time course of MTP assembly consists of initiation and propagation and termination steps, Gaskin, et al., 1974, "Turbidimetric studies of the in vitro assembly and disassembly of porcine neurotubules", J. Mol. Biol. 89:737-758. The rate of propagation under defined conditions is sufficiently linear to permit kinetic analysis, that can be evaluated with respect DIME and GTP concentrations. As we show here the inhibition of MTP assembly by DIME occurs in the same range of drug concentration as required to inhibit tumorigonesis in vivo, or to inhibit cell replication or induce eventual cell death; Mendeleyev, et al., 1997. "Structural specificity and tumoricidal action of methyl-3,5-diiodo-4-(4'-methoxyphenoxy)benzoate (DIME)" Int. J. Oncol., 10:689-695. Therefore the DIME-MTP interaction is most probably a component of the apparently pleiotropic cellular mechanism of action of DIME.
Preparation of MTP and an optical test for polymerization was adopted from published methods, Gaskin, et al., 1974, "Turbidimetric studies of the in vitro assembly and disassembly of porcine neurotubules", J. Mol. Biol. 89:737-758; Tiwari, et al., 1993, "A pH and temperature-dependent cycling method that doubles the yield of microtubule protein", Anal. Biochem. 215:96-103. Bovine or rabbit brain was homogenized in an equal volume of ice cold buffer containing 100 mM Pipes/K^+ (pH 7.4), 4 mM EGTA. 1 mM MgCl2, 0.5 mM DTT and 0.1 mM PMSF, and centrifuged at 39,000 g for 1 hour at 4° C. To the supernatant, DMSO (8% final concentration) and GTP (1 mM final concentration) were added, followed by incubation at 37° C. for 30 minutes. Microtubules were pelleted at 100,000 g at 37° C. for 30 minutes. The pellets were incubated on ice for 15 minutes, followed by resuspension in ice cold PEM buffer (100 mM Pipes/K+ (pH 6.9), 1 mM EGTA, 1 mM MgCl2). This warm polymerization and cold depolymerization cycle was repeated once more and the cold, resuspended monomeric MTP (8-10 mg/ml protein) was used for the optical test for polymerization kinetics. Both rabbit or bovine brain yielded identical MTP preparations.
The polymerization reaction was started by the addition of […] of MTP solution (equivalent to 0.8-1.0 mg protein) and initial linear rates of increase in absorbance at 350 nm followed and recorded at 37° C. in a Perkin-Elmer 552 double beam spectrophotometer, equipped with a thermostatically controlled cuvette holder.
It is apparent that the rate of MTP polymerization proceeds in a linear manner, thus conditions for maximal polymerization rates as defined by Berne, B, 1974, "Interpretation of light scattering from long rods", J. Mol. Biol. 89:755-758 appear fulfilled. Therefore it is possible to determine the quantitative correlation between [DIME] and [GTP] by comparing the linear rate in the presence of varying drug and activator concentrations.
The assay system consisted of 240 μl of PEM buffer containing 8% DMSO […]
(added in 3 μl), or solvent control and 0.6 mg MTP (60 μl). […]

[3] = tested on: E-ras 20 cells; details: carboxylic acid vs methyl ester; cited from earlier work
[4] = tested on: human lung cancer cells (A 549); assay: Growth of human lung cancer cells (Table 2 B); type: cell-based
From the text: (§1) The effects of these three substances on the growth of human mammary cancer cells (MDA-MB-231) and human lung cancer cells (A 549) are summarized in Table 2.
(§2) (×10^3) Cell number per 2 cm^2

[5] = tested on: cellular esterases; assay: Stability against cellular esterases
From the text: Moreover, amide analogs of DIME, having an NH2 or a substituted amino group, may be subject to hydrolysis catalyzed by cellular amidases. Since the hydrolysis product of such a hydrolysis is a carboxylic acid, the same decrease in efficacy can result. In order to decrease the chemical lability in the DIME pharmacophore structure, ketone analogues of DIME may be used.
A more detailed kinetic comparison of DIME, DIPE and DIPP on the kinetics of MTP assembly, in a concentration range of zero to 10 μM drug and a louvered GTP concentration (10 μM), is shown in FIG. 3.

[6] = tested on: mammary cancer cells; assay: Colony formation by mammary cancer cells (FIG. 1); type: cell-based, human; details: DIME vs DIPE
From the text: FIG. 1 is a graph illustrating the cell killing effects of DIME and DIPE on mammary cancer colonies;
The effect of DIME and DIPE on colony formation by mammary cancer cells is illustrated in FIG. 1, where the results are superimposable, confirming that cytocidal action of DIME and DIPE are indistinguishable.

[7] = tested on: human mammary cancer cells (MDA-MB-231); assay: Growth of human mammary cancer cells (Table 2 A); type: cell-based; details: 2 μM
From the text: as §1
In section (a) of Table 2 the effects of DIME, DIPE and DIPP on the growth of mammary cancer cells, assayed at 48 and 72 hrs, is shown. […] The slightly lesser efficacy of DIPP could be predicted from earlier results obtained with DIME analogs (International Journal of Oncology, 1997, 10, 689-695, FIG. 1) where we have shown that extending the methyl to ethyl substitution (on the carboxyl ester) diminishes cytotoxicity against tumor cells. A similar phenomenon occurs when DIPE is extended to DIPP (i.e. from the ethanone to the propanone).
as §2

[8] = tested on: thyroid iodine uptake; details: rat, in vivo; cited from earlier work
[9] = tested on: Rana pipiens tadpoles; details: tadpole metamorphosis; cited from earlier work
[10] = tested on: non-malignant mouse pituitary adenoma; details: cited from earlier work

In the case of COC(=O)c1cc(I)c(Oc2ccc(OC)cc2Cl)c(I)c1 [2'-chloro analogue of DIME], the “maximal inhibitory action on growth as compared to DIME” value ([1]; human cancer cells) is given as “about 25%”.

In the case of CCCOc1ccc(Oc2c(I)cc(C(=O)OC)cc2I)cc1 [4'-propoxy homologue], the “cytostatic / cytocidal activity” value [1] is listed as “completely inactive”.

For CCOc1ccc(Oc2c(I)cc(C(=O)OC)cc2I)cc1 [Compound 2], the “maximal cytocidal action as compared to DIME” value ([1]; human cancer cells) is listed as 25-30%, the “Percent inhibition of intitial velocity (microtubule assembly in vitro)” value (from here on “Percent inhibition of intitial velocity”) [2] is listed as 76% and the “effect of substitution on inhibition of MTP polymerization” value [2] is listed as “progressively diminishes inhibition of MTP polymerization”.

For CCCCOc1ccc(Oc2c(I)cc(C(=O)OC)cc2I)cc1 [Compound 4], the “Percent inhibition of intitial velocity” value [2] was 8% and the “effect of substitution on inhibition of MTP polymerization” value [2] was “progressively diminishes inhibition of MTP polymerization”.

For CCOC(=O)c1cc(I)c(Oc2ccc(OC)cc2)c(I)c1 [Compound 5], the “cytostatic / cytocidal activity” value [1] is given as “completely inactive” and the “Percent inhibition of intitial velocity” value [2] is given as 35%.

In the case of COc1ccc(Oc2c(I)cc(C(=O)O)cc2I)cc1 [Compound 6], the antitumorigenic action [3] is given as “only halves the antitumorigenic action”, the “efficacy against tumor cells relative to ester” value ([1]; carboxylic acid from hydrolysis of the ester) is given as “much less efficacy against tumor cells than the ester” and the “Percent inhibition of intitial velocity” value [2] is given as 0%. For the same compound, the “effect of substitution on inhibition of MTP polymerization” value [2] was “completely abolishes the inhibitory effect on MTP polymerization”.

With COc1ccc(Oc2c(I)cc(C(N)=O)cc2I)cc1 [Compound 7] the “Percent inhibition of intitial velocity” value [2] was 43%.

In the case of COc1ccc(Oc2c(I)cc(C(=O)N(C)C)cc2I)cc1 [Compound 9], the “Percent inhibition of intitial velocity” value [2] was 6%.

In the case of COc1ccc(Oc2c(I)cc(C(C)=O)cc2I)cc1 [DIPE, 1-[3,5-diiodo-4-(4'-methoxyphenoxy)-phenyl]-ethanone], the Cell number ([4]; 2 μM, 48 hours, control 110) was 78 ×10^3 cell number per 2 cm^2 w, the Cell number ([4]; 2 μM, 72 hours, control 190) was 81 ×10^3 cell number per 2 cm^2 w and the Cell number ([4]; 5 μM + BNPP 150 μM (esterase inhibitor), 48 hours, control 110) was 37 ×10^3 cell number per 2 cm^2 w. For the same compound, the Cell number ([4]; 5 μM + BNPP 150 μM (esterase inhibitor), 72 hours, control 190) was 38 ×10^3 cell number per 2 cm^2 w, the Cell number ([4]; 5 μM, 48 hours, control 110) was 38 ×10^3 cell number per 2 cm^2 w and the Cell number ([4]; 5 μM, 72 hours, control 190) was 40 ×10^3 cell number per 2 cm^2 w. The “effect of esterase inhibitor BNPP on cytocidal action” value ([4]; lung cancer cells, with BNPP) was “no supportive effect”, the stability against esterases [5] was “absence of esterase action” and the “effect on colony formation (FIG. 1)” value [6] was “superimposable”. The Cell number ([7]; 48 hours, control 150) was 55 ×10^3 cell number per 2 cm^2 w, the Cell number ([7]; 72 hours, control 300) was 60 ×10^3 cell number per 2 cm^2 w and the “inhibitory action on MTP assembly (comparison, FIG. 2)” value [2] was “similar”. For the same compound, the “order of potency on MTP assembly (FIG. 3)” value [2] was “DIME>DIPE>DIPP”.

With CCC(=O)c1cc(I)c(Oc2ccc(OC)cc2)c(I)c1 [DIPP, 1-[3,5-diiodo-4-(4'-methoxyphenoxy)-phenyl]-1-propanone] the Cell number ([7]; 48 hours, control 150) was 90 ×10^3 cell number per 2 cm^2 w, the Cell number ([7]; 72 hours, control 300) was 145 ×10^3 cell number per 2 cm^2 w and the “effectiveness relative to DIME and DIPE” value ([7]; 72 hrs) was “about one half as effective as the other two drugs”. For the same compound, the “inhibitory action on MTP assembly (comparison, FIG. 2)” value [2] was “similar” and the “order of potency on MTP assembly (FIG. 3)” value [2] was “DIME>DIPE>DIPP”.

For NC(Cc1cc(I)c(Oc2cc(I)c(O)c(I)c2)c(I)c1)C(=O)O (stereo not drawn) [thyroxine], the “suppression of uptake of iodine by the thyroid” value [8] is given as “suppresses uptake of iodine by the thyroid”, the “cell differentiating / metamorphogenic activity” value [9] is given as “induces cell differentiation” and the “inhibition of growth of non-malignant pituitary tumor” value [10] is given as “depress growth of non-malignant mouse pituitary thyrotropic tumors”.
